This assay addresses T1, guinea pig serum ACE (angiotensin converting enzyme) (Cavia porcellus, UniProt H0UWL7).
T1 construct: ACE from guinea pig serum; from tissue; host or cells: guinea pig serum
T1 sequence (H0UWL7 33-1302): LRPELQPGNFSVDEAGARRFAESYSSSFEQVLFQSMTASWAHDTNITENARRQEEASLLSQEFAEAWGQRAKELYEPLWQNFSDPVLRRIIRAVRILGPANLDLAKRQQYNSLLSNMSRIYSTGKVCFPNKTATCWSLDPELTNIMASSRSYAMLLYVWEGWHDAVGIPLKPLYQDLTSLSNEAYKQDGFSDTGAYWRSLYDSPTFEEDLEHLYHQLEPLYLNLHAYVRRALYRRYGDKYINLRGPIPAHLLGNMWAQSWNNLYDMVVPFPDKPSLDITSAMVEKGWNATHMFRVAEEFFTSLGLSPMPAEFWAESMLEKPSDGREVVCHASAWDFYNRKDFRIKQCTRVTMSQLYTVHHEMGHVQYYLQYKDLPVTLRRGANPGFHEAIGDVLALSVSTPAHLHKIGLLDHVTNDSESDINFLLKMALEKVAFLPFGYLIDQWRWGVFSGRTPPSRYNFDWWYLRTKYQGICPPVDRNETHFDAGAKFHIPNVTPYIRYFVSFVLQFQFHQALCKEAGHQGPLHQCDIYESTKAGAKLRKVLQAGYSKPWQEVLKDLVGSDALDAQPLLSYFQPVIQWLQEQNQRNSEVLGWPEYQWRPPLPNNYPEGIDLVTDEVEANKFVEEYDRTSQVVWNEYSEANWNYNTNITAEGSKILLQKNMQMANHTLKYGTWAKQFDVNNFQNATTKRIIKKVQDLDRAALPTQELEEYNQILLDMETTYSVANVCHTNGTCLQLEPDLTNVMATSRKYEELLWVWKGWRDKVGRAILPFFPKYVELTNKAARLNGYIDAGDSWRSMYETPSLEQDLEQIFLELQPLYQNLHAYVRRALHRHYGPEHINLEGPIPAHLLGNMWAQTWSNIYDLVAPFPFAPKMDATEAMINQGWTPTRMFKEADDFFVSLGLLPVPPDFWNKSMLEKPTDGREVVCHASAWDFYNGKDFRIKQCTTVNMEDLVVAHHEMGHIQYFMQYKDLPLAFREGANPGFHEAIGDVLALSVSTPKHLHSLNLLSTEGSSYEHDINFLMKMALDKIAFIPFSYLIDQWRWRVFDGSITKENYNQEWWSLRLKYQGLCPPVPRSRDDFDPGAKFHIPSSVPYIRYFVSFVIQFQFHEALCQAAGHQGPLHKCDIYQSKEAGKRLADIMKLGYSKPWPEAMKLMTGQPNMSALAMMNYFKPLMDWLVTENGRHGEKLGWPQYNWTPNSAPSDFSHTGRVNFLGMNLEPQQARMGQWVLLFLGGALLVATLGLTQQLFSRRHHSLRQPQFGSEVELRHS
Briefly: In vitro ACE Assay (angiotensin converting enzyme inhibitory activity). The note with it: 10 min preincubation, substrate 3H-hippuryl-glycylglycine, 60 min at 37° C. It is filed as biochemical. Here is the method: In vitro ACE Assay: Angiotensin converting enzyme (ACE) inhibitory activity is determined by assaying guinea pig serum ACE in the presence and absence of the test compound. ACE from guinea pig serum and the test compounds are preincubated for 10 minutes before the addition of the labelled substrate ^3 H-hippuryl-glycylglycine. After a 60 minute incubation at 37° C. the reaction is stopped by the addition of 0.1N HCl. ACE cleaves the hippuryl-glycyl bond to form the dipeptide glycyl-glycine and ^3 H-hippuric acid. The ^3 H-hippuric acid is then extracted with ethyl acetate and the ACE inhibition of a given sample calculated on the basis of the ^3 H-hippuric acid generated.

Structures can show the parent of a compound that is named as a salt.

As usually defined, the IC50 is the concentration that inhibits the measured activity by half.

Take `CC(=O)SCCC(=O)N1CC2CCCCC2C1C(=O)O` (centres unmarked) [Example 1, 2-[3-(Acetylthio)-1-oxopropyl]octahydro-1H-isoindole-1-carboxylic acid]: the midpoint of inhibition, the IC50, lay at 1.2 µM. That is a single-digit micromolar value.
With `O=C(O)C1C2CCCCC2CN1C(=O)CCS` (centres unmarked) [Example 2, 2-(3-Mercaptopropanoyl)octahydro-1H-isoindole-1-carboxylic acid, dicyclohexylamine salt] the figure was 0.024 µM; with `CC(=O)SCC(C)C(=O)N1CC2CCCCC2C1C(=O)O` (centres unmarked) [Example 3, 2-[3-(Acetylthio)-2-methyl-1-oxopropyl]octahydro-1H-isoindole-1-carboxylic acid], 0.42 µM; with `CC(CS)C(=O)N1CC2CCCCC2C1C(=O)O` (centres unmarked) [Example 4, 2-[3-Mercapto-2-methyl-1-oxopropyl]octahydro-1H-isoindole-1-carboxylic acid], 0.028 µM.
With `CC(=O)SCCC(=O)N1C(=O)C2CCCCC2C1C(=O)O` (centres unmarked) [Example 5, 2-[3-Acetylthio-1-oxopropyl]octahydro-3-oxo-1H-isoindole-1-carboxylic acid, dicyclohexylamine salt] the figure was 0.66 µM.
`O=C(O)C1C2CCCCC2C(=O)N1C(=O)CCS` (centres unmarked) [Example 6, 2-[3-Mercapto-1-oxopropyl]octahydro-3-oxo-1H-isoindole-1-carboxylic acid, dicyclohexylamine salt] showed a half-inhibitory concentration (IC50) of 0.013 µM.
With `CC(=O)SCC(C)C(=O)N1C(=O)C2CCCCC2C1C(=O)O` (centres unmarked) [Example 7, 2-[3-(Acetylthio)-2-methyl-1-oxopropyl]octahydro-3-oxo-1H-isoindole-1-carboxylic acid, dicyclohexylamine salt] the figure was 0.28 µM.
With `CC(CS)C(=O)N1C(=O)C2CCCCC2C1C(=O)O` (centres unmarked) [Example 8, 2-[3-(Mercapto-2-methyl-1-oxopropyl]octahydro-3-oxo-1H-isoindole-1-carboxylic acid, dicyclohexylamine salt] the figure was 0.014 µM.
With `CCOC(=O)C(CCc1ccccc1)NC(C)C(=O)N1CC2CCCCC2C1C(=O)O` (centres unmarked) [Example 12, 2-[2-[(1-Carbethoxy-3-phenylpropyl)amino]-1-oxopropyl]-octahydro-1H-isoindole-1-carboxylic acid, hydrochloride] the figure was 0.17 µM; with `CC(NC(CCc1ccccc1)C(=O)O)C(=O)N1CC2CCCCC2C1C(=O)O` (centres unmarked) [Example 13, 2-[2-[(1-Carboxy-3-phenylpropyl)amino]-1-oxopropyl]-octahydro-1H-isoindole-1-carboxylic acid], 0.0026 µM; with `CCOC(=O)[C@H](CCc1ccccc1)N[C@@H](C)C(=O)N1C(=O)C2CCCCC2C1C(=O)O` (some centres unmarked) [Example 14, 2-[2-[(1-carbethoxy-3-phenylpropyl)amino]-1-oxopropyl]-octahydro-3-oxo-1H-isoindole-1-carboxylic acid, hydrochloride], 0.34 µM.
